These results are taken from patent US20020042072A1, “Method for monitoring the effect of cancer therapies” (priority 2000, published 2002).

The subject of one assay is A431 xenograft. Kind of assay: Tumour growth of subcutaneous A431 xenograft. The assay is classed as in vivo, nu/nu mice. Particulars: for % reduction of tumour growth: A431 xenograft; for tumor growth in vivo: oral administration, nu/nu mice xenografted with A43 1 or KB tumor cells. On the procedure: (§1) Human tumour cells KB (CCL-17) and A43 1 (CRL-1555) were obtained from ATCC and cultured in DMEM medium supplemented with 10% fetal calf serum, 10 mM HEPES, 50 μmol/l beta-mercaptoethanol and a standard complement of antibiotics.
(§2) To establish subcutaneous tumours in nu/nu mice (5-6 week old female animals, supplied by Harlan, The Netherlands), cells were trypsinised, washed and suspended in phosphate-buffered physiological solution+10% fetal calf serum at 10^7 cells/ml. 100 μl cell suspension containing 10^6 cells were then injected subcutaneously into the right flank of the mice (one site per mouse). When tumours were well established and had reached diameters of more than 5-9 mm, mice were randomly distributed between treatment and the vehicle control group (7-10 days after cell injection). Test compounds (1 and 5 mg/ml) were dissolved and administered intragastically by gavage needle. Administration was once daily oral dosing in a volume of 10 ml/kg body weight. Tumour diameters were measured three times weekly with a caliper. Volumes (in mm^3) were calculated according to the formula: tumour volume=length*diameter^2*π/6.

Assay [1] deals with telomerase activity in KB xenograft. Kind of assay: Telomerase activity (TRAPeze ELISA) in KB xenograft tumour material. The assay is classed as in vivo, nu/nu mice. Particulars: 50 mg/kg once daily oral. On the procedure:
as §1, §2
(§3) For measuring telomerase activity, the Oncor®, TRAPeze™ Elisa Telomerase Detection Kit was used. Tumour material surgically removed from mice was cleaned and frozen at −70° C. […]
For orientation: ELISA stands for enzyme-linked immunosorbent assay.

Assay [2] has as its system telomerase activity in A431 xenograft. Kind of assay: Telomerase activity (TRAPeze ELISA) in A431 xenograft tumour material. The assay is classed as in vivo, nu/nu mice. On the procedure: as §1, §2, §3
The next assay deals with KB xenograft. Kind of assay: Tumour growth of subcutaneous KB xenograft. The assay is classed as in vivo, nu/nu mice. Particulars: 50 mg/kg once daily oral. On the procedure: as §1, §2
The subject of another assay is NTERA-2. Particulars: NTERA-2, differentiation-sensitive clones; cited from earlier work.
In another assay the test system is NB-4. Particulars: NB-4, differentiation-sensitive clones; cited from earlier work.
For another assay, the system named is MDA-MB23 1. Particulars: cited from earlier work.
Another assay concerns MCF-7. Particulars: cited from earlier work.

Where two headings read alike, the source gives them in different places.

As to `CN1CCC(Nc2ncc3ncnc(Nc4ccc(F)c(Cl)c4)c3n2)CC1` [Inhibitor 1, 4-((3-chloro-4-fluoro-phenyl)amino)-6-(1-methyl-4-piperidinyl-amino)-pyrimido(5,4d)pyrimidine], the “% reduction of tumour growth” value came to 79% in the assay on A431 xenograft (50 mg/kg once daily oral) and 51% with KB xenograft. In addition, the “tumor growth in vivo” value with A431 xenograft is on record as “inhibited tumor growth in vivo”. Moreover, the results for the “% reduction of telomerase activity” value in assay [1] and in assay [2] (50 mg/kg once daily oral) were 6% and 100%, respectively.
`CC1(N)CCN(c2ncc3ncnc(Nc4ccc(F)c(Cl)c4)c3n2)CC1` [Inhibitor 2, 4-((3-chloro-4-fluoro-phenyl)amino)-6-(4-amino-4-methyl-1-piperidinyl)-pyrimido(5,4d)pyrimidine]: the “% reduction of tumour growth” value in the assay with A431 xenograft (10 mg/kg once daily oral) was 90%. For the same molecule, the “tumor growth in vivo” value in the assay with A431 xenograft was “inhibited tumor growth in vivo”. Moreover, in assay [2] (10 mg/kg once daily oral), the “% reduction of telomerase activity” value turned out to be 96%.
On to `CC1=C(/C=C/C(C)=C/C=C/C(C)=C/C(=O)O)C(C)(C)CCC1` [all-trans-retinoic acid], for which the telomerase activity entry with NTERA-2 and in the assay on NB-4 was “decline in telomerase activity” each time.
Turning to `CC(=O)NCCCCCCNC(C)=O` [hexamethylene bisacetamide], the telomerase activity entry in the assay with NTERA-2 and in the assay on NB-4 was “decline in telomerase activity” throughout.
For `CC/C(=C(\c1ccccc1)c1ccc(OCCN(C)C)cc1)c1ccccc1` [tamoxifen], the telomerase activity result in the assay with MDA-MB23 1 (MDA-MB23 1, 10^−8M) was “repressive effect”; with MDA-MB23 1 (MDA-MB23 1, higher (10^−7 and 10^−6M) or lower (10^−9M) concentrations), “no effect”; in the assay on MCF-7 (MCF-7, 10^−8M), “repressive effect”; in the assay on MCF-7 (MCF-7, higher (10^−7 and 10^−6M) or lower (10^−9M) concentrations), “no effect”.
